Source: US11571418B2, “Platinum compounds that inhibit constitutive STAT3 signaling and induce cell cycle arrest and apoptosis of malignant cells” (H. LEE MOFFITT CANCER CENTER AND RESEARCH INSTITUTE, INC., priority 2011, dated 2023)

Experiments:
[1] = tested on: Stat5; experiment: In vitro Stat5 DNA-binding activity assay, EMSA with MGFe probe; parameters: species or system mouse; details: pre-incubated 30 min before MGFe probe
Method: FIGS. 1A-1E. Inhibition of in vitro Stat3 DNA-binding activity by a platinum complex. Nuclear extracts or cell lysates containing activated Stat1, Stat3 and Stat5, or E2F1 prepared from NIH3T3/hEGFR that are stimulated with EGF or Sf-9 insect cells that are infected with baculovirus expressing Stat1, Stat3, Stat5, or E2F1, respectively, were treated with or without the indicated concentrations of platinum complex, PLATINUM-401 or Cisplatin, for 30 min at room temperature prior to incubation with radiolabeled oligonucleotide probes, and subjected to EMSA analysis. (FIG. 1A) (i) Stat1 and Stat3 binding activities to hSIE probe, (ii) Stat1 and Stat5 binding activities to MGFe probe, and (iii) plot of % oligonucleotide probe-STAT:STAT complexes versus concentration of PLATINUM-401. […] Positions of STAT: STAT-DNA complexes in gel are labeled. In (A) to (C), the control lanes represent DMSO (vehicle)-treatment.
Nuclear extract preparation and gel shift assays—Nuclear extract preparation from NIH3T3 stimulated by rhIL-6, NIH3T3/hEGFR stimulated by rhEGF, v-Src-transformed fibroblasts (NIH3T3/v-Src) or tumor cell lines and electrophoretic mobility shift assay were carried out as previously described (Turkson et al., 1998; Garcia et al., 1997; Yu et al., 1995). […]

[2] = tested on: Stat3-dependent firefly luciferase reporter pLucTKS3; experiment: Stat3-dependent luciferase reporter assay; assay type: cell-based, mouse; details: stable NIH3T3/v-Src/pLucTKS3, 48 h
Method: FIGS. 3A-3D. Inhibition of Stat3-mediated gene expression by PLATINUM-401. (FIG. 3A) and (FIG. 3B) v-Src-transformed mouse fibroblasts that stably express Stat3-dependent (NIH3T3/v-Src/pLucTKS3) and Stat3-independent (NIH3T3/v-Src/pRLSRE) luciferase reporters or β-galactosidase (β-gal), as well as normal mouse fibroblast (NIH3T3) transiently transfected with pLucTKS3, pGL2-VEGF-Luc, NFkB-Luc or pLucSRE together with or without v-Src were treated with or without PLATINUM-401 for 48 h. Cytosolic extracts were then prepared from cells for luciferase and […] activities measurements. […]
Cytosolic extract preparation and luciferase assays—Cytosolic extract preparation from fibroblasts and luciferase assays were previously described (Turkson et al., 1998; Turkson et al., 1999). […] Cells were resuspended in 0.4 ml of low-salt HEPES buffer (10 mM HEPES [pH 7.8], 10 mM KCl, 0.1 mM EGTA, 0.1 mM EDTA, 1 mM phenylmethylsulfonyl fluoride (PMSF), and 1 mM dithiothreitol (DTT)) for 15 min, lysed by the addition of 20 μl of 10% Nonidet P-40 (NP-40), and centrifuged (10,000×g, 30 s, 4° C.) to obtain the cytosolic supernatant, which was used for luciferase assays (Promega) measured with a luminometer. […]
To further investigate the activities of PLATINUM-401, the inventors treated malignant cells and measured effects on Stat3 signaling. […]

With `CC(O)CN1CCN(CC(C)O)CC1` (centres unmarked) [PLATINUM-401] the “effect on DNA-binding activity of Stat5:Stat5 dimer” value [1] was “does not significantly affect” and the “induction of Stat3-dependent reporter” value [2] was “strongly suppresses”.
